The values below come from US7163946B2 (Ligand Pharmaceuticals Incorporated, priority 2002, dated 2007).

Test [1] addresses T1, hPR (Homo sapiens, UniProt P06401).
T1 sequence (P06401 1-933): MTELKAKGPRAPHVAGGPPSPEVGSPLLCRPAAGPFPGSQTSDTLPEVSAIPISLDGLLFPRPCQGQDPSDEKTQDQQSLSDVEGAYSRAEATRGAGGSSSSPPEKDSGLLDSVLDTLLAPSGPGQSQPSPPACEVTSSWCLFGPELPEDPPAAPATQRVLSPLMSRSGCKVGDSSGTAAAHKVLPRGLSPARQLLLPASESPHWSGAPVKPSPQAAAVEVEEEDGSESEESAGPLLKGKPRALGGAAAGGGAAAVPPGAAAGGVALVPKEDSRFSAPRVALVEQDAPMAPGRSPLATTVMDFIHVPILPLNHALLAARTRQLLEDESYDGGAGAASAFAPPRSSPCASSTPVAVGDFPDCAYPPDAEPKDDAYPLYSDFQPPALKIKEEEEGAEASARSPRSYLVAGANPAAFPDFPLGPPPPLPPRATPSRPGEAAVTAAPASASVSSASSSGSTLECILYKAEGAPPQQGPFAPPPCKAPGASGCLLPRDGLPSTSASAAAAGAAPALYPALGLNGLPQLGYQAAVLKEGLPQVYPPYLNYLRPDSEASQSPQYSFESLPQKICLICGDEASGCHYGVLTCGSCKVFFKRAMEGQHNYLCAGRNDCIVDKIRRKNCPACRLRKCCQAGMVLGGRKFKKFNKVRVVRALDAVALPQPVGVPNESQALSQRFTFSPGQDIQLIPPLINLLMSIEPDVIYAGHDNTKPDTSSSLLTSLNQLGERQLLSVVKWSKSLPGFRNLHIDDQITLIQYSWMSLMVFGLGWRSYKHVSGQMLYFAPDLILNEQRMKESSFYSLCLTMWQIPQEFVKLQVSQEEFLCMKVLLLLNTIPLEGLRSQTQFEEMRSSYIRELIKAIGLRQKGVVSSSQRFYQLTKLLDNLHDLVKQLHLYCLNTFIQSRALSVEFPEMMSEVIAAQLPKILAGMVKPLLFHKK
Briefly: hPR cotransfection assay in CV-1 cells, agonist mode. It is filed as cell-based. The conditions noted are these: for Emax: CV-1, CV-1 cells, relative to maximal response of progesterone as 100%, read-out: hPR Agonist CV-1 Cells Eff. (%).
Experimental: (§1) Antagonist efficacy was determined as a function (%) of maximal inhibition of a reference agonist at EC50 concentration. All the cotransfection experiments were carried out in 96-well plates by automation (Beckman Biomomek automated workstation).

Test [2] addresses T1, hPR. Briefly: hPR cotransfection assay in CV-1 cells, antagonist mode. It is filed as cell-based. To be noted: for Emax: CV-1, CV-1 cells, maximal inhibition of reference agonist at EC50 concentration, read-out: hPR Antagonist CV-1 Cells Eff. (%); for IC50: CV-1 cells.
Experimental: as §1
For a further test, the target named is T2, hPR-A (Homo sapiens, UniProt P06401).
T2 sequence (P06401 1-769 isoform P06401-2): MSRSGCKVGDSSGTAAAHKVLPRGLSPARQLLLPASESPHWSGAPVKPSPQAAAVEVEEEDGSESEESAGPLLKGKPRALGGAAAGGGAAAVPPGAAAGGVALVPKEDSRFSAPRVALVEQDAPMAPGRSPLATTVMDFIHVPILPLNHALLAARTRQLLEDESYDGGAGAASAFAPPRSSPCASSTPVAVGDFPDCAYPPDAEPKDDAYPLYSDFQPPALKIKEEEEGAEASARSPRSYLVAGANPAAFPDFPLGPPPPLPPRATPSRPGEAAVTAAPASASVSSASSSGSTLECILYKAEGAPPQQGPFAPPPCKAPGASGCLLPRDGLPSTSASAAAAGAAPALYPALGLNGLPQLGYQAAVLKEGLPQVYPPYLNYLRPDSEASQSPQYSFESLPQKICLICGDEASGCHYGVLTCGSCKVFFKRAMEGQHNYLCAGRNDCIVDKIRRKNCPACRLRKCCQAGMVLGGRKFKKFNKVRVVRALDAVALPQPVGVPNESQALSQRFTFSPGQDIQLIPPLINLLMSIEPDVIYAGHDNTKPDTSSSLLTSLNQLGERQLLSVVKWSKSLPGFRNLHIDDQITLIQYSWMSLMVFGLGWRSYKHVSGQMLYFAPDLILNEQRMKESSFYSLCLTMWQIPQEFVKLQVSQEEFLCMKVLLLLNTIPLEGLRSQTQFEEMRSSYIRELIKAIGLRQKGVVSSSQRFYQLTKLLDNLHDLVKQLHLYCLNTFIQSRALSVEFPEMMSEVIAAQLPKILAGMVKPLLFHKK
Briefly: Receptor competitive binding assay. To be noted: read-out: PR binding Ki.

The target in test [3] is T3, human androgen receptor (hAR) (Homo sapiens, UniProt P10275).
T3 sequence (P10275 1-920): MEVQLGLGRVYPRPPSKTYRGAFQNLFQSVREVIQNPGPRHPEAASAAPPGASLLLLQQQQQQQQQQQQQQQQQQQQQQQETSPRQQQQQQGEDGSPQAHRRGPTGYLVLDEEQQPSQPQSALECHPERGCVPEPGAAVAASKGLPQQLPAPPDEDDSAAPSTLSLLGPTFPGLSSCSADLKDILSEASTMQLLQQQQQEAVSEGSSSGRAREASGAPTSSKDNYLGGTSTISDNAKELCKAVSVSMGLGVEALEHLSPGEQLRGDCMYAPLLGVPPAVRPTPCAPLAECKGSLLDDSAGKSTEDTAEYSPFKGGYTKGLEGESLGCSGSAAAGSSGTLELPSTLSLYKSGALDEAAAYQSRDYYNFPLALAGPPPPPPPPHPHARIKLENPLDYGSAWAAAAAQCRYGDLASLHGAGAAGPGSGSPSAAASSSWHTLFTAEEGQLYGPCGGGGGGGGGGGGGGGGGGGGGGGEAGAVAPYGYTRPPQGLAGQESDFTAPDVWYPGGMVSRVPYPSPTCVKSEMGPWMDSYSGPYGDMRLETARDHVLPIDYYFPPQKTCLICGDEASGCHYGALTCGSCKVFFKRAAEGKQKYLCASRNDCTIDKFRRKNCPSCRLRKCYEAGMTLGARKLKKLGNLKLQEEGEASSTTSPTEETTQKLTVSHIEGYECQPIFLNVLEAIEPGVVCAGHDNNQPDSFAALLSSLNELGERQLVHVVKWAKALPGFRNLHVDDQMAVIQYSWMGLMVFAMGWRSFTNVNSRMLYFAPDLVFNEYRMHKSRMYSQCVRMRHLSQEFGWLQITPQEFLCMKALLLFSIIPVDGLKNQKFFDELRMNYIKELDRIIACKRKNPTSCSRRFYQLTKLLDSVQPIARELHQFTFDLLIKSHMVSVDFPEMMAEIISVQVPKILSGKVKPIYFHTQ
Briefly: hAR cotransfection assay (potency ratio to hPR). It is filed as cell-based. The conditions noted are these: receptor-selectivity potency ratio, cotransfection assays.
Experimental: as §1

Where [4] appears, read: CV-1 cells, read-out: hPR Agonist CV-1 Cells EC50.
[5] abbreviates: Tables 3 and 4, values without footnote, read-out: hPR agonist potencies (EC50 in nM) in the cotransfection assay.

SMILES strings stand for the structures. Read-outs that look alike come from different tables or passages of the source.

For `CC1=CC(C)(C)Nc2ccc3c(c21)/C(=C/c1ccccc1)Oc1c(F)cc(F)cc1-3` [Compound 10, 7,9-difluoro-5(Z)-benzylidene-1,2-dihydro-2,2,4-trimethyl-5H-chromeno[3,4-f]quinoline], the Emax was 153% on hPR [1] and less than 20% at hPR [2]. Besides, the 50% effective concentration (EC50) at hPR [1] (setting [4]) and on hPR [1] (setting [5]) was 4.9 nM in each case. Moreover, the IC50 – broadly, the point on the concentration scale where inhibition reaches its midpoint – on hPR [2] was greater than 10000 nM. Besides, at hPR-A, the Ki – broadly, a measure of affinity in units of concentration, obtained from inhibition or displacement – was determined as 6.8 nM. The “hAR EC50 or IC50/hPR EC50” value in test [3] is given as 320.

Regarding `COc1ccccc1/C=C1\Oc2c(F)cc(F)cc2-c2ccc3c(c21)C(C)=CC(C)(C)N3` [Compound 18, 7,9-difluoro-5(Z)-(2-methoxybenzylidene)-1,2-dihydro-2,2,4-trimethyl-5H-chromeno[3,4-f]quinoline], the Emax was 142% on hPR [1] and less than 20% on hPR [2]. The EC50 on hPR [1] (setting [4]) and at hPR [1] (setting [5]) was 1.3 nM each time. For the same compound, the IC50 on hPR [2] is greater than 10000 nM. For the same compound, the Ki at hPR-A was 3.9 nM. The “hAR EC50 or IC50/hPR EC50” value in test [3] stood at 170.

As for `CC1=CC(C)(C)Nc2ccc3c(c21)/C(=C/c1ccsc1)Oc1c(F)cc(F)cc1-3` [Compound 30, 7,9-difluoro-5(Z)-(3-thienylmethylidene)-1,2-dihydro-2,2,4-trimethyl-5H-chromeno[3,4-f]quinoline], the results for the Emax at hPR [1] and on hPR [2] were 186% and less than 20%, respectively. Besides, the EC50 (commonly the concentration that produces a half-maximal response) at hPR [1] (setting [4]) stood at 5.3 nM. For the same compound, at hPR [2], the 50% inhibitory concentration (IC50) is greater than 10000 nM. In addition, at hPR-A, the Ki worked out at 4.5 nM. In addition, the “hAR EC50 or IC50/hPR EC50” value in test [3] was 377.

As to `CC1=CC(C)(C)Nc2ccc3c(c21)/C(=C/c1ccncc1)Oc1c(F)cc(F)cc1-3` [Compound 14, 7,9-difluoro-5(Z)-(4-picolylidene)-1,2-dihydro-2,2,4-trimethyl-5H-chromeno[3,4-f]quinoline], the Emax is 103% on hPR [1] and less than 20% at hPR [2]. Besides, the EC50 on hPR [1] (setting [4]) and at hPR [1] (setting [5]) was 7.4 nM in each case. On hPR [2], this compound registered an IC50 greater than 10000 nM. In addition, at hPR-A, the Ki worked out at 6 nM. Besides, the “hAR EC50 or IC50/hPR EC50” value in test [3] came out at 54.

As to `CC1=CC(C)(C)Nc2ccc3c(c21)/C(=C/c1cc(F)ccc1C)Oc1c(F)cc(F)cc1-3` [Compound 19, 7,9-difluoro-5(Z)-(2-methyl-5-fluorobenzylidene)-1,2-dihydro-2,2,4-trimethyl-5H-chromeno[3,4-f]quinoline], the Emax is 212% at hPR [1] and less than 20% on hPR [2]. Further, the EC50 at hPR [1] (setting [4]) and at hPR [1] (setting [5]) was 1.4 nM throughout. The compound further came in with an IC50 against hPR [2] greater than 10000 nM. In addition, the Ki on hPR-A turned out to be 8.5 nM. In addition, the “hAR EC50 or IC50/hPR EC50” value in test [3] is greater than 1000.

Turning to `CC1=CC(C)(C)Nc2ccc3c(c21)/C(=C/Br)Oc1c(F)cc(F)cc1-3` [Compound 29, 7,9-difluoro-5(Z)-bromomethylidene-1,2-dihydro-2,2,4-trimethyl-5H-chromeno[3,4-f]quinoline], the Emax at hPR [1] was 191%; at hPR [2], less than 20%. The 50% effective concentration (EC50) on hPR [1] (setting [4]) worked out at 2.3 nM. This compound also displayed an IC50 at hPR [2] greater than 10000 nM. Further, on hPR-A, the Ki turned out to be 7 nM. Besides, the “hAR EC50 or IC50/hPR EC50” value in test [3] was determined as 6.

As to `CC1=CC(C)(C)Nc2ccc3c(c21)/C(=C/c1cccs1)Oc1c(F)cc(F)cc1-3` [Compound 31, 7,9-difluoro-5(Z)-(2-thienylmethylidene)-1,2-dihydro-2,2,4-trimethyl-5H-chromeno[3,4-f]quinoline], the Emax at hPR [1] is 171%; on hPR [2], less than 20%. Further, the EC50 at hPR [1] (setting [4]) and on hPR [1] (setting [5]) was 2.7 nM each time. Further, the IC50 on hPR [2] was greater than 10000 nM. In addition, the Ki on hPR-A was determined as 7.9 nM. Besides, the “hAR EC50 or IC50/hPR EC50” value in test [3] is reported as 517.
